Values after ≈ are worked out from the molar mass of the structure shown.
Experiments:
[1] = tested on: Orobanche cumana radicles; test: Orobanche cumana radicle growth bioassay; format: in vivo; conditions: for inhibition of radicle growth / inhibition at 100 µg/mL: 100 μg/mL, 7 days, relative to control (GR24 + 2% DMSO), ± standard error; for inhibition at 100 µg/mL: 168 h
Method: Allelopathic effects of each B. trixago extracts and isolated compounds were tested on Orobanche radicle growth according to previous protocols. Seeds of Orobanche cumana, were surface-sterilized by immersion in 0.5% (w/v) NaOCl and 0.02% (v/v) Tween 20, for 5 min, rinsed thoroughly with sterile distilled water, and dried in a laminar airflow cabinet. Approximately 100 seeds of Orobanche seeds were placed separately on 9 mm-diameter glass fiber filter paper disks (GFFP) (Whatman International Ltd., Maidstone, UK), moistened with 50 μL of sterile distilled water, and placed in incubators at 23 °C for 10 days inside Parafilm-sealed Petri dishes, to allow seed conditioning. Then, GFFP disks containing conditioned Orobanche seeds were transferred onto a sterile sheet of filter paper and transferred to new 9 cm sterile Petri dishes. Stock solutions of each B. trixago extract and isolated metabolite were respectively dissolved in dimethyl sulfoxide and subsequently individually diluted to 100 μg/mL using an aqueous solution of GR24 (10^−6 M). The final concentration of dimethyl sulfoxide was 2% in all test treatments. For each assay, 50 μL aliquots of each sample were applied to GFFP discs containing conditioned Orobanche seeds. Triplicate aliquots of a treatment only containing GR24 and 2% dimethyl sulfoxide was used as a control. Treated seeds were incubated in the dark at 23 °C for 7 days and radicle growth was determined for each GFFP disc, using a stereoscopic microscope (Leica S9i, Leica Microsystems GmbH, Wetzlar, Germany). For the characteristic of radicle growth, the value used was the average of 10 randomly selected radicles per GFFP disc. The percentage of radicle growth inhibition of each treatment was then calculated relative to the average radicle growth of control treatment.

[2] = set-up: method as in doi:10.1076/phbi.37.4.318.5808, PMID 12036030; conditions: cited from earlier work
[3] = set-up: method as in doi:10.1076/phbi.37.4.318.5808; conditions: cited from earlier work
[4] = tested on: radicles of Orobanche crenata; set-up: method as in PMID 24044614; conditions: cited from earlier work
Daphnia magna = Daphnia magna immobilization test (UNI EN ISO 6341:2013); format: in vivo; conditions: 24 h
Method: (§1) The ecotoxicological tests were carried out on green freshwater algae Raphidocelis subcapitata, macrophyte Lepidium sativum, water flea Daphnia magna, nematode Caenorhabditis elegans and bacterium Aliivibrio fischeri to expand the range of endpoints due to differences in species sensitivity and exposure. Testing on R. subcapitata was performed using as endpoint the algal growth inhibition after 72 h of exposure and was based on ISO 8692:2012 [65]. The algal density was determined by spectrophotometric analysis (DR5000, Hach Lange GbH, Weinheim, Germany). Ecotoxicity tests were carried out in triplicate, at 25 ± 1 °C with constant illumination of 6700 lux. Testing on L. sativum was performed according to ISO 11269-1:2012 [66] considering germination and root elongation as endpoint after 72 h. Seeds (n = 10) were exposed in triplicate in Petri dishes and incubated at 25 ± 1 °C in darkness. Daphnia magna test was conducted according to UNI EN ISO 6341:2013 [67] and the endpoint evaluated was the immobilization after 24 h. Daphnids (less than 24 h old) were exposed to the samples at 20 ± 2 °C, in darkness without feeding. Testing on C. elegans was carried out, with a few modifications, according to the ASTM E2172-01 Standard Method (2014) using the 24 h mortality endpoint. The test was performed using age-synchronous adult nematodes exposed at 20 °C to compound 4, without feeding. […]

Caenorhabditis elegans = test: C. elegans 24 h mortality test (ASTM E2172-01); format: in vivo
Method: as §1

Lepidium sativum = test: whole plant or invertebrate; format: in vivo; conditions: 72 h, read-out: EC50 (germination and root elongation)
Method: as §1

Aliivibrio fischeri = test: Bioluminescence inhibition test (ISO 11348-3:2007, Microtox); format: in vivo; conditions: 0.5 h, 30 min
Method: as §1

Raphidocelis subcapitata = test: Algal growth inhibition test (ISO 8692:2012); format: in vivo; conditions: 72 h
Method: as §1

Wistar rats = tested on: Wistar rats; set-up: method as in PMID 23195582; conditions: cited from earlier work

| SMILES | inhibition of radicle growth [1] | inhibition at 100 µg/mL [1] [%] | DPPH scavenging activity [2] | antioxidant activity in β-carotene bleaching assay [3] | also measured |
| --- | --- | --- | --- | --- | --- |
| C=C1[C@H]2[C@H](O[C@@H]3O[C@H](CO)[C@@H](O)[C@H](O)[C@H]3O)OC=C(C(=O)OC)[C@H]2C[C@@H]1O [Compound 5, gardoside methyl ester] | no significant inhibitory activity | – | – | – | – |
| OCC1=CC[C@@H]2C=CO[C@@H](O[C@@H]3O[C@H](CO)[C@@H](O)[C@H](O)[C@H]3O)[C@H]12 [Compound 2, bartsioside] | – | 61.1 ± 1.5 | – | – | – |
| OCC1=C[C@@H](O)[C@@H]2C=CO[C@@H](O[C@@H]3O[C@H](CO)[C@@H](O)[C@H](O)[C@H]3O)[C@H]12 [Compound 3, aucubin] | no significant inhibitory activity | – | no DPPH scavenging activity | inactive | – |
| COC(=O)C1=CO[C@@H](O[C@@H]2O[C@H](CO)[C@@H](O)[C@H](O)[C@H]2O)[C@H]2[C@@H]1CC[C@]2(C)O [Compound 6, mussaenoside] | – | 65.9 ± 2.9 | no DPPH scavenging activity | antioxidant | – |
| O=C(O)c1ccccc1 [Compound 1, benzoic acid] | – | – | – | – | inhibitory activity on radicles [4]: moderate inhibitory activity |
| O=C(OCC1=C[C@@H](O)[C@@H]2C=CO[C@@H](O[C@@H]3O[C@H](CO)[C@@H](O)[C@H](O)[C@H]3O)[C@H]12)c1ccccc1 [Compound 4, melampyroside] | – | 72.6 | no DPPH scavenging activity | pro-oxidant | EC50 (Daphnia magna): 33.3 µg/mL (≈ 73.8 µM); EC50 (Caenorhabditis elegans): 57.2 µg/mL (≈ 127 µM); EC50 (Lepidium sativum): ≥ 100 µg/mL; EC50 (Aliivibrio fischeri): 76 µg/mL (≈ 169 µM); EC50 (Raphidocelis subcapitata): ≥ 100 µg/mL; phytotoxicity observed on radicles ([1]; 100 µg/mL): some degree of phytotoxicity observed as darkening; cardioactivity (Wistar rats): cardioactive |

From PMC9414233, “Iridoid Glycosides Isolated from Bellardia trixago Identified as Inhibitors of Orobanche cumana Radicle Growth” (Toxins, 2022)
